Measurements: patent US20010011063A1, “Substituted 2,4-diamino-1,3,5-triazines, processes for their preparation and their use as herbicides and plant growth regulators” (priority 1999, published 2001)

Tests used:
Type in all cases: in vivo
[1] = tested on: Cyperus monti, Echinochloa crus-galli and Sagitaria pygmaea; assay: Action on harmful plants in rice (paddy rice conditions); conditions: poured into the dammed water, visual scoring about three weeks after application; also: test concentration or dose not given here
From the text: Transplanted and sown rice and also typical rice weeds (gramineous and broad-leaved) are cultivated in closed plastic pots in a greenhouse to the three-leaf stage (Echinochloa crus-galli 1.5-leaf) under paddy rice conditions (height of water: 2-3 cm). This is followed by treatment with the compounds according to the invention. For this purpose, the formulated active compounds are suspended, dissolved or emulsified in water and applied by pouring them into the dammed water around the test plants in different dosages.

[2] = tested on: Stellaria media, Lolium multiflorum, Amaranthus retroflexus, Sinapis alba, Avena sativa and Settaria viridis; assay: Pre-emergence effect on weeds (greenhouse pot test); conditions: application rate of 1 kg or less of active substance per hectare; visually scored after 3 to 4 weeks by comparison with untreated controls
From the text: Seeds or rhizome pieces of mono and dicotyledonous weed plants are placed in sandy loam soil in plastic pots and covered with soil. The compounds according to the invention which are formulated in the form of wettable powders or emulsion concentrates are then applied to the soil cover in the form of aqueous suspensions or emulsions at an application rate of 600 to 800 l of water/ha (converted), in various dosages.

[3] = tested on: Sinapis alba, Echinochloa crus-galli, Lolium multiforum, Stellaria media, Cyperus iria, Amaranthus retroflexus, Settaria viridis and Avena sativa; assay: Post-emergence effect on weeds (greenhouse pot test); conditions: application rate of 1 kg or less of active substance per hectare; treated at the three-leaf stage; scored visually after about 3 to 4 weeks vs untreated controls
Method: Seeds or rhizome pieces of mono- and dicotyledonous weeds are placed in sandy loam soil in plastic pots, covered with soil and grown in a greenhouse under good growth conditions. Three weeks after sowing, the test plants are treated at the three-leaf stage. The compounds according to the invention, formulated as wettable powders or emulsion concentrates, are sprayed, at various dosages, onto the green parts of the plants at an application rate of 600 to 800 l of water/ha (converted). After the test plants had remained in the greenhouse for about 3 to 4 weeks under optimum growth conditions, the effect of the preparations is scored visually by comparison with untreated controls. The agents according to the invention also have good herbicidal activity post-emergence against a broad spectrum of economically important weed grasses and broad-leaved weeds.

CC(C)c1nc(N)nc(N[C@@H](CCCc2ccccc2)C2CC2)n1 [Example 3-11]
very good herbicidal activity: herbicidal activity against harmful plants which are typical for rice crops [1] | herbicidal activity pre-emergence against harmful plants [2] | herbicidal activity post-emergence against harmful plants [3]

CC(C)(F)c1nc(N)nc(N[C@@H](CCCc2ccccc2)C2CC2)n1 [Example 3-12]
very good herbicidal activity: herbicidal activity against harmful plants which are typical for rice crops [1] | herbicidal activity pre-emergence against harmful plants [2] | herbicidal activity post-emergence against harmful plants [3]

CC(C)(F)c1nc(N)nc(N[C@@H](CCCc2cccc(Cl)c2)C2CC2)n1 [Example 3-18]
very good herbicidal activity: herbicidal activity against harmful plants which are typical for rice crops [1] | herbicidal activity pre-emergence against harmful plants [2] | herbicidal activity post-emergence against harmful plants [3]

CC(C)c1nc(N)nc(N[C@@H](CCCc2ccccc2)C2CCC2)n1 [Example 3-58]
very good herbicidal activity: herbicidal activity against harmful plants which are typical for rice crops [1] | herbicidal activity pre-emergence against harmful plants [2] | herbicidal activity post-emergence against harmful plants [3]

CC(C)Cc1nc(N)nc(NC(CCCc2ccccc2)C2CCC2)n1 (stereo not drawn) [Example 3-59]
very good herbicidal activity: herbicidal activity against harmful plants which are typical for rice crops [1] | herbicidal activity pre-emergence against harmful plants [2] | herbicidal activity post-emergence against harmful plants [3]

CC(C)(F)c1nc(N)nc(NC(CCCc2ccccc2)C2CCC2)n1 (stereo not drawn) [Example 3-64]
very good herbicidal activity: herbicidal activity against harmful plants which are typical for rice crops [1] | herbicidal activity pre-emergence against harmful plants [2] | herbicidal activity post-emergence against harmful plants [3]

CC(C)c1nc(N)nc(NC(CCCc2cccc(Cl)c2)C2CCC2)n1 (stereo not drawn) [Example 3-67]
very good herbicidal activity: herbicidal activity against harmful plants which are typical for rice crops [1] | herbicidal activity pre-emergence against harmful plants [2] | herbicidal activity post-emergence against harmful plants [3]

CC(C)(F)c1nc(N)nc(NC(CCCc2cccc(Cl)c2)C2CCC2)n1 (stereo not drawn) [Example 3-68]
very good herbicidal activity: herbicidal activity against harmful plants which are typical for rice crops [1] | herbicidal activity pre-emergence against harmful plants [2] | herbicidal activity post-emergence against harmful plants [3]

Cc1cccc(CCCC(Nc2nc(N)nc(C(C)C)n2)C2CCC2)c1 (stereo not drawn) [Example 3-71]
very good herbicidal activity: herbicidal activity against harmful plants which are typical for rice crops [1] | herbicidal activity pre-emergence against harmful plants [2] | herbicidal activity post-emergence against harmful plants [3]

Cc1cccc(CCCC(Nc2nc(N)nc(C(C)(C)F)n2)C2CCC2)c1 (stereo not drawn) [Example 3-72]
very good herbicidal activity: herbicidal activity against harmful plants which are typical for rice crops [1] | herbicidal activity pre-emergence against harmful plants [2] | herbicidal activity post-emergence against harmful plants [3]

COc1cccc(CCCC(Nc2nc(N)nc(C(C)C)n2)C2CCC2)c1 (stereo not drawn) [Example 3-75]
very good herbicidal activity: herbicidal activity against harmful plants which are typical for rice crops [1] | herbicidal activity pre-emergence against harmful plants [2] | herbicidal activity post-emergence against harmful plants [3]

COc1cccc(CCCC(Nc2nc(N)nc(C(C)(C)F)n2)C2CCC2)c1 (stereo not drawn) [Example 3-76]
very good herbicidal activity: herbicidal activity against harmful plants which are typical for rice crops [1] | herbicidal activity pre-emergence against harmful plants [2] | herbicidal activity post-emergence against harmful plants [3]

Nc1nc(NC(CCCc2ccc(Cl)cc2Cl)C2CC2)nc(C(F)(F)F)n1 (stereo not drawn) [Example 4-6]
very good herbicidal activity: herbicidal activity against harmful plants which are typical for rice crops [1] | herbicidal activity pre-emergence against harmful plants [2] | herbicidal activity post-emergence against harmful plants [3]

Cc1nc(N)nc(NC(CCCc2ccccc2)C2CC2)n1 (stereo not drawn) [Example 4-8]
very good herbicidal activity: herbicidal activity against harmful plants which are typical for rice crops [1] | herbicidal activity pre-emergence against harmful plants [2] | herbicidal activity post-emergence against harmful plants [3]

CCc1nc(N)nc(NC(CCCc2ccccc2)C2CC2)n1 (stereo not drawn) [Example 4-9]
very good herbicidal activity: herbicidal activity against harmful plants which are typical for rice crops [1] | herbicidal activity pre-emergence against harmful plants [2] | herbicidal activity post-emergence against harmful plants [3]

CC(C)c1nc(N)nc(NC(CCCc2ccccc2)C2CC2)n1 (stereo not drawn) [Example 4-11]
very good herbicidal activity: herbicidal activity against harmful plants which are typical for rice crops [1] | herbicidal activity pre-emergence against harmful plants [2] | herbicidal activity post-emergence against harmful plants [3]

CC(C)(F)c1nc(N)nc(N[C@H](CCCc2ccccc2)C2CC2)n1 [Example 4-12, 2-Amino-4-(1-fluoro-1-methylethyl)-6-[(1 R)4-phenyl-1-cyclopropylbutylamino]-1,3,5-triazine]
very good herbicidal activity: herbicidal activity against harmful plants which are typical for rice crops [1] | herbicidal activity pre-emergence against harmful plants [2] | herbicidal activity post-emergence against harmful plants [3]

CC(C)(F)c1nc(N)nc(NC(CCCc2cccc(Cl)c2)C2CC2)n1 (stereo not drawn) [Example 4-18]
very good herbicidal activity: herbicidal activity against harmful plants which are typical for rice crops [1] | herbicidal activity pre-emergence against harmful plants [2] | herbicidal activity post-emergence against harmful plants [3]

CC(C)c1nc(N)nc(NC(CCCc2ccccc2)C2CCC2)n1 (stereo not drawn) [Example 4-58]
very good herbicidal activity: herbicidal activity against harmful plants which are typical for rice crops [1] | herbicidal activity pre-emergence against harmful plants [2] | herbicidal activity post-emergence against harmful plants [3]

CC(C)Cc1nc(N)nc(NC(CCCc2ccccc2)C2CCC2)n1 (stereo not drawn) [Example 4-59]
very good herbicidal activity: herbicidal activity against harmful plants which are typical for rice crops [1] | herbicidal activity pre-emergence against harmful plants [2] | herbicidal activity post-emergence against harmful plants [3]

CC(C)(F)c1nc(N)nc(NC(CCCc2ccccc2)C2CCC2)n1 (stereo not drawn) [Example 4-64]
very good herbicidal activity: herbicidal activity against harmful plants which are typical for rice crops [1] | herbicidal activity pre-emergence against harmful plants [2] | herbicidal activity post-emergence against harmful plants [3]

CC(C)c1nc(N)nc(NC(CCCc2cccc(Cl)c2)C2CCC2)n1 (stereo not drawn) [Example 4-67]
very good herbicidal activity: herbicidal activity against harmful plants which are typical for rice crops [1] | herbicidal activity pre-emergence against harmful plants [2] | herbicidal activity post-emergence against harmful plants [3]

CC(C)(F)c1nc(N)nc(NC(CCCc2cccc(Cl)c2)C2CCC2)n1 (stereo not drawn) [Example 4-68]
very good herbicidal activity: herbicidal activity against harmful plants which are typical for rice crops [1] | herbicidal activity pre-emergence against harmful plants [2] | herbicidal activity post-emergence against harmful plants [3]

Cc1cccc(CCCC(Nc2nc(N)nc(C(C)C)n2)C2CCC2)c1 (stereo not drawn) [Example 4-71]
very good herbicidal activity: herbicidal activity against harmful plants which are typical for rice crops [1] | herbicidal activity pre-emergence against harmful plants [2] | herbicidal activity post-emergence against harmful plants [3]

Cc1cccc(CCCC(Nc2nc(N)nc(C(C)(C)F)n2)C2CCC2)c1 (stereo not drawn) [Example 4-72]
very good herbicidal activity: herbicidal activity against harmful plants which are typical for rice crops [1] | herbicidal activity pre-emergence against harmful plants [2] | herbicidal activity post-emergence against harmful plants [3]

COc1cccc(CCCC(Nc2nc(N)nc(C(C)C)n2)C2CCC2)c1 (stereo not drawn) [Example 4-75]
very good herbicidal activity: herbicidal activity against harmful plants which are typical for rice crops [1] | herbicidal activity pre-emergence against harmful plants [2] | herbicidal activity post-emergence against harmful plants [3]

COc1cccc(CCCC(Nc2nc(N)nc(C(C)(C)F)n2)C2CCC2)c1 (stereo not drawn) [Example 4-76]
very good herbicidal activity: herbicidal activity against harmful plants which are typical for rice crops [1] | herbicidal activity pre-emergence against harmful plants [2] | herbicidal activity post-emergence against harmful plants [3]

CC(C)Cc1nc(N)nc(NC(Cc2ccccc2)CC2CC2)n1 (stereo not drawn) [Example 5-1]
very good herbicidal activity: herbicidal activity against harmful plants which are typical for rice crops [1] | herbicidal activity pre-emergence against harmful plants [2] | herbicidal activity post-emergence against harmful plants [3]
